Each structure is given as a SMILES string.

The target in the first test is FASN enzyme (Homo sapiens, UniProt P49327). As to the kind of experiment: Enzymatic Assay for FASN Inhibitors. The format is biochemical.
Chain of FASN enzyme (P49327 whole entry): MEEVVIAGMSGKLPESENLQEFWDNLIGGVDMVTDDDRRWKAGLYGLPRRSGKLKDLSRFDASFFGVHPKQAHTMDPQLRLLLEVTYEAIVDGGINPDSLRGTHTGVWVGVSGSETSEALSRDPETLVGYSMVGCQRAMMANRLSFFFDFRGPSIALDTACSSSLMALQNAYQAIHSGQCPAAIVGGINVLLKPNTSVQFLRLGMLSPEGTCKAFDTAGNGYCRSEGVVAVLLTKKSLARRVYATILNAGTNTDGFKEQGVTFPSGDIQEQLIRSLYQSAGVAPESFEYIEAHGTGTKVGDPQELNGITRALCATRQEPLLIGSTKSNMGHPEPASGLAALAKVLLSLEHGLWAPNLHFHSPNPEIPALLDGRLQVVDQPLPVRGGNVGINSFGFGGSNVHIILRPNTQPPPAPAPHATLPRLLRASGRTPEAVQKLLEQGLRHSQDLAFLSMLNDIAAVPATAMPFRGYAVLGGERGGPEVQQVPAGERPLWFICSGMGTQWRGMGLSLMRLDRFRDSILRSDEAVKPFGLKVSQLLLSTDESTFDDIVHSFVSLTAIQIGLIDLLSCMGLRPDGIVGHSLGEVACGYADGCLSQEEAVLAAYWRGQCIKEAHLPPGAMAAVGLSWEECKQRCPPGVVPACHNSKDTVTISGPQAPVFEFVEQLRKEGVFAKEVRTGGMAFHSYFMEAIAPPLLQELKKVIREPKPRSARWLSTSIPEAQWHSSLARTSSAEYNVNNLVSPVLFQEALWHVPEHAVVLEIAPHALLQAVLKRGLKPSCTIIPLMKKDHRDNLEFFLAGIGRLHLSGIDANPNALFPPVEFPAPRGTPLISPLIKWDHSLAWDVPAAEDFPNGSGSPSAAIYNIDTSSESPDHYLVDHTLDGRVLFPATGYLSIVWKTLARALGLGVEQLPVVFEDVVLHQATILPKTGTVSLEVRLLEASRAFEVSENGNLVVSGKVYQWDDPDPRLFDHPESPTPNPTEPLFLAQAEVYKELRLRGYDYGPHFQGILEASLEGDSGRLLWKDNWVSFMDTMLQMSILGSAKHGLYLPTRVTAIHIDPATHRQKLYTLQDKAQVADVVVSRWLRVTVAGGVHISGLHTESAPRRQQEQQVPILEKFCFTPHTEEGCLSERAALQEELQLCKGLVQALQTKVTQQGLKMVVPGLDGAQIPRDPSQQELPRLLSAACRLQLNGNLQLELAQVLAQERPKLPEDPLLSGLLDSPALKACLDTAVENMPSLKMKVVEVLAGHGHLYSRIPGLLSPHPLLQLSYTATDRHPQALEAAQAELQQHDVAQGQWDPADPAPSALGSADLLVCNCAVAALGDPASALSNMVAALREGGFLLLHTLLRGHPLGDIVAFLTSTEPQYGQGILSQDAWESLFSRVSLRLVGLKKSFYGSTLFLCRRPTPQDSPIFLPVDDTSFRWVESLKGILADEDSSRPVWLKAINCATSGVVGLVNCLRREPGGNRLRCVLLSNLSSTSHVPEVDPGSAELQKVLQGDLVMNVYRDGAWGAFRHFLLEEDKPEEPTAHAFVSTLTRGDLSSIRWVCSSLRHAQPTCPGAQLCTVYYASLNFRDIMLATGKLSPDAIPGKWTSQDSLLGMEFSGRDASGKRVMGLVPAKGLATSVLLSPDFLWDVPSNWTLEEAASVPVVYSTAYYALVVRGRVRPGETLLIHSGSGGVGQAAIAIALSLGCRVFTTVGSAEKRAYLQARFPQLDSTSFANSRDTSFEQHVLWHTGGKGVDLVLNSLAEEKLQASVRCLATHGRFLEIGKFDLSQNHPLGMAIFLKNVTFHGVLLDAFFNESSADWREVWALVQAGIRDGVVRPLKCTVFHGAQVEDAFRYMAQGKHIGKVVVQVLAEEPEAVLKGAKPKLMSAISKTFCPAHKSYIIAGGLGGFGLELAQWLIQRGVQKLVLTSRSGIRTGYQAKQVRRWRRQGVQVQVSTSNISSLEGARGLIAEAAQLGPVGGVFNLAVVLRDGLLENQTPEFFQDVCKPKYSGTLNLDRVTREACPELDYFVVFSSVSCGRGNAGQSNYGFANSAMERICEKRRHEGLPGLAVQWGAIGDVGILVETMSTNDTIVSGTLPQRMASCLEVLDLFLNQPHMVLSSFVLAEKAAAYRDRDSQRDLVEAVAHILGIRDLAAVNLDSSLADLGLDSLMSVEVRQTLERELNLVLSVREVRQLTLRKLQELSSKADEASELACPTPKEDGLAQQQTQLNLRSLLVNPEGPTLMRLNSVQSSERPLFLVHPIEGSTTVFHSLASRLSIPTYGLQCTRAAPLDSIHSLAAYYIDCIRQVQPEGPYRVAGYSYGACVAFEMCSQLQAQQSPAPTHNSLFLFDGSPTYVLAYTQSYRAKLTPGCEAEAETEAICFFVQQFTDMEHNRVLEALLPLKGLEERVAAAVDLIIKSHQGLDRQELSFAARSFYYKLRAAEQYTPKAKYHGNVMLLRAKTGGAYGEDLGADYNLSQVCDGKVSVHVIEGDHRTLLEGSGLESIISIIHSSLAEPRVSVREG
Conditions: not given
How it is done: Assays were performed in a 384-well black plate to measure the inhibition of FASN activities by individual compounds herein disclosed. An aliquot of 250 nL of compound was incubated with 10 μL of 40 nM FASN enzyme in assay buffer (50 mM HEPES pH=7.3, 0.5 mM EDTA, 1 mM Ascorbate, 100 mM NaCl and 0.04% TritonX-100) in each well at 25° C. for 60 minutes. After the plate was centrifuged briefly, 10 μL of substrate mix (20 μM Acetyl-CoA, 60 μM Malonyl-CoA, and 100 μM NADPH in assay buffer) was added to each well. The reaction was maintained at 25° C. for 90 minutes. The reaction was then quenched by adding 10 μL of 90 μM 7-Diethylamino-3-(4′-Maleimidylpheynyl)-4-Methylcoumarin in 50/50 Ethanol/H2O solution. The assay plate was incubated at 25° C. for 15 minutes, and read on a plate reader with excitation and emission wavelength at 360 nm and 530 nm, respectively. The IC50 of a given compound was calculated by fitting the dose response curve with a four parameter logistic equation.
Regarding `C[C@H]1CN(C(=O)c2ccc(-c3ccc4c(c3)ncn4C)cc2)CCN1C(=O)C1(N)CC1` [1-[(2S)-2-methyl-4-[4-(1-methyl-1H-1,3-benzodiazol-5-yl)benzoyl]piperazine-1-carbonyl]cyclopropan-1-amine], the IC50 was < 500 nM.
On to `C[C@H]1CN(C(=O)c2ccc(-c3ccc4c(c3)ncn4C)cc2)CCN1C(=O)C1(O)CC1` [1-[(2S)-2-methyl-4-[4-(1-methyl-1H-1,3-benzodiazol-5-yl)benzoyl]piperazine-1-carbonyl]cyclopropan-1-ol], for which the IC50 was < 500 nM.
Consider `C[C@H]1CN(C(=O)c2ccc(-c3ccc4cnn(C)c4c3)cc2)CCN1C(=O)C1(O)CC1` [1-[(2S)-2-methyl-4-[4-(1-methyl-1H-indazol-6-yl)benzoyl]piperazine-1-carbonyl]cyclopropan-1-ol], for which the IC50 is < 500 nM.
Turning to `C[C@H]1CN(C(=O)c2ccc(-c3ccc4cn(C)nc4c3)cc2)CCN1C(=O)C1(O)CC1` [1-[(2S)-2-methyl-4-[4-(2-methyl-2H-indazol-6-yl)benzoyl]piperazine-1-carbonyl]cyclopropan-1-ol], the IC50 was < 500 nM.
Take `C[C@H]1CN(C(=O)c2ccc(N3CCc4cccnc4C3)cc2)CCN1C(=O)C1(O)CC1` [1-[(2S)-2-methyl-4-[4-(5,6,7,8-tetrahydro-1,7-naphthyridin-7-yl)benzoyl]piperazine-1-carbonyl]cyclopropan-1-ol]: the IC50 was < 500 nM.
For `C[C@H]1CN(C(=O)c2ccc(-c3ccc4c(c3)ncn4C)cc2F)CCN1C(=O)C1(O)CC1` [1-[(2S)-4-[2-fluoro-4-(1-methyl-1H-1,3-benzodiazol-5-yl)benzoyl]-2-methylpiperazine-1-carbonyl]cyclopropan-1-ol], the IC50 is < 500 nM.
Turning to `Cc1nn(C)c2ccc(-c3ccc(C(=O)N4CCN(C(=O)C5(O)CC5)[C@@H](C)C4)cc3)cc12` [1-[(2S)-4-[4-(1,3-dimethyl-1H-indazol-5-yl)benzoyl]-2-methylpiperazine-1-carbonyl]cyclopropan-1-ol], the IC50 is < 500 nM.
For `C[C@H]1CN(C(=O)c2ccc(-c3nc4ccc(Cl)cc4o3)cc2)CCN1C(=O)C1(O)CC1` [1-[(2S)-4-[4-(6-chloro-1,3-benzoxazol-2-yl)benzoyl]-2-methylpiperazine-1-carbonyl]cyclopropan-1-ol], the IC50 is < 500 nM.
Same read-out and setting: then `C[C@H]1CN(C(=O)c2ccc(-c3nc4ccc(F)cc4o3)cc2)CCN1C(=O)C1(N)CC1` [1-[(2S)-4-[4-(6-fluoro-1,3-benzoxazol-2-yl)benzoyl]-2-methylpiperazine-1-carbonyl]cyclopropan-1-amine], with < 500 nM.
For the compound `C[C@H]1CN(C(=O)c2ccc(-c3cccc(S(=O)(=O)C4CC4)c3)cc2)CCN1C(=O)C1(O)CC1` [1-[(2S)-4-{4-[3-(cyclopropanesulfonyl)phenyl]benzoyl}-2-methylpiperazine-1-carbonyl]cyclopropan-1-ol], the half-inhibitory concentration (IC50) was < 500 nM.
As for `C[C@@H]1CN(C(=O)c2ccc(-c3ccc(Cl)cc3F)cc2)C[C@H](C)N1C(=O)C1(O)CC1` [1-[(2S,6R)-4-[4-(4-chloro-2-fluorophenyl)benzoyl]-2,6-dimethylpiperazine-1-carbonyl]cyclopropan-1-ol], the IC50 is < 500 nM.
`C[C@@H]1CN(C(=O)c2ccc(-c3nc4ccc(F)cc4o3)cc2)C[C@H](C)N1C(=O)C1(N)CC1` [1-[(2S,6R)-4-[4-(6-fluoro-1,3-benzoxazol-2-yl)benzoyl]-2,6-dimethylpiperazine-1-carbonyl]cyclopropan-1-amine]: the IC50 is < 500 nM.
`C[C@@H]1CN(C(=O)C2(O)CC2)CCN1C(=O)c1ccc(-c2ccc3c(c2)ncn3C)cc1` [1-[(3R)-3-methyl-4-[4-(1-methyl-1H-1,3-benzodiazol-5-yl)benzoyl]piperazine-1-carbonyl]cyclopropan-1-ol]: the IC50 is < 500 nM.
On the same count and under the same terms, then `C[C@@H]1CN(C(=O)C2(O)CC2)CCN1C(=O)c1ccc(-c2nc3ccc(F)cc3o2)cc1` [1-[(3R)-4-[4-(6-fluoro-1,3-benzoxazol-2-yl)benzoyl]-3-methylpiperazine-1-carbonyl]cyclopropan-1-ol], with < 500 nM; and `C[C@H]1CN(C(=O)C2(N)CC2)CCN1C(=O)c1ccc(-c2ccc3c(c2)ncn3C)cc1` [1-[(3S)-3-methyl-4-[4-(1-methyl-1H-1,3-benzodiazol-5-yl)benzoyl]piperazine-1-carbonyl]cyclopropan-1-amine], with < 500 nM.
Regarding `C[C@H]1CN(C(=O)C2(O)CC2)CCN1C(=O)c1ccc(-c2ccc(Cl)cc2F)cc1` [1-[(3S)-4-[4-(4-chloro-2-fluorophenyl)benzoyl]-3-methylpiperazine-1-carbonyl]cyclopropan-1-ol], the IC50 is < 500 nM.
As to `C[C@H]1CN(C(=O)C2(O)CC2)CCN1C(=O)c1ccc(-c2nc3ccc(F)cc3o2)cc1` [1-[(3S)-4-[4-(6-fluoro-1,3-benzoxazol-2-yl)benzoyl]-3-methylpiperazine-1-carbonyl]cyclopropan-1-ol], the half-maximal inhibitory concentration (IC50) was < 500 nM.
As to `O=C(c1ccc(-c2ccc3cc(F)ccc3n2)c(F)c1F)N1CCN(C(=O)C2(O)CC2)CC1` [1-[(4-{[2,3-difluoro-4-(6-fluoroquinolin-2-yl)phenyl]carbonyl}piperazin-1-yl)carbonyl]cyclopropan-1-ol], the IC50 was < 500 nM.
On the same count and under the same terms, then `COc1ccc2nc(-c3ccc(C(=O)N4CCN(C(=O)C5(O)CC5)CC4)c(F)c3F)ccc2c1` [1-[(4-{[2,3-difluoro-4-(6-methoxyquinolin-2-yl)phenyl]carbonyl}piperazin-1-yl)carbonyl]cyclopropan-1-ol], with < 500 nM; and `O=C(c1ccc(-c2ccc3cc(F)ccc3n2)cc1F)N1CCN(C(=O)C2(O)CC2)CC1` [1-[(4-{[2-fluoro-4-(6-fluoroquinolin-2-yl)phenyl]carbonyl}piperazin-1-yl)carbonyl]cyclopropan-1-ol], with < 500 nM.
For `O=C(c1ccc(-c2ccc3ncccc3c2)c(F)c1)N1CCN(C(=O)C2(O)CC2)CC1` [1-[(4-{[3-fluoro-4-(quinolin-6-yl)phenyl]carbonyl}piperazin-1-yl)carbonyl]cyclopropan-1-ol], the half-inhibitory concentration (IC50) was < 500 nM.
With `O=C(c1ccc(-c2cccc3ocnc23)cc1)N1CCN(C(=O)C2(O)CC2)CC1` [1-[(4-{[4-(1,3-benzoxazol-4-yl)phenyl]carbonyl}piperazin-1-yl)carbonyl]cyclopropan-1-ol], the IC50 was < 500 nM.
For `Cn1ncc2cc(-c3ccc(C(=O)N4CCN(C(=O)C5(O)CC5)CC4)cc3)ccc21` [1-[(4-{[4-(1-methyl-1H-indazol-5-yl)phenyl]carbonyl}piperazin-1-yl)carbonyl]cyclopropan-1-ol], the IC50 is < 500 nM.
In the case of `Cn1ccc2cc(-c3ccc(C(=O)N4CCN(C(=O)C5(O)CC5)CC4)cc3)ccc21` [1-[(4-{[4-(1-methyl-1H-indol-5-yl)phenyl]carbonyl}piperazin-1-yl)carbonyl]cyclopropan-1-ol], the IC50 is < 500 nM.
As to `O=C(c1ccc(-c2cc3ccccc3[nH]2)cc1)N1CCN(C(=O)C2(O)CC2)CC1` [1-[(4-{[4-(1H-indol-2-yl)phenyl]carbonyl}piperazin-1-yl)carbonyl]cyclopropan-1-ol], the IC50 was < 500 nM.

The test is the same for the next values; noted with them: FASN enzymatic assay; Table 2-2.
The compound `O=C(c1ccc2nc(-c3ccc(F)cc3)sc2c1)N1CCN(C(=O)C2(O)CC2)CC1` [1-[(4-{[2-(4-fluorophenyl)-1,3-benzothiazol-6-yl]carbonyl}piperazin-1-yl)carbonyl]cyclopropan-1-ol] yielded an IC50 of 500 to 5000 nM.
The compound `COc1cc(-c2cnc3ccccc3c2)ccc1C(=O)N1CCN(C(=O)C2(O)CC2)CC1` [1-[(4-{[2-methoxy-4-(quinolin-3-yl)phenyl]carbonyl}piperazin-1-yl)carbonyl]cyclopropan-1-ol] had an IC50 of 500 to 5000 nM.
On the same count and under the same terms, in the case of `COc1cc(-c2ccc3ncccc3c2)ccc1C(=O)N1CCN(C(=O)C2(O)CC2)CC1` [1-[(4-{[2-methoxy-4-(quinolin-6-yl)phenyl]carbonyl}piperazin-1-yl)carbonyl]cyclopropan-1-ol] it was 500 to 5000 nM.
Compound `COc1cc(C(=O)N2CCN(C(=O)C3(O)CC3)CC2)ccc1-c1ccc2ncccc2c1` [1-[(4-{[3-methoxy-4-(quinolin-6-yl)phenyl]carbonyl}piperazin-1-yl)carbonyl]cyclopropan-1-ol] returned a half-inhibitory concentration (IC50) of 500 to 5000 nM.
For the compound `COc1cc(-c2ccc3scnc3c2)ccc1C(=O)N1CCN(C(=O)C2(O)CC2)CC1` [1-[(4-{[4-(1,3-benzothiazol-5-yl)-2-methoxyphenyl]carbonyl}piperazin-1-yl)carbonyl]cyclopropan-1-ol], the IC50 was in the range of 500 to 5000 nM.
Compound `Cn1c(-c2ccc(C(=O)N3CCN(C(=O)C4(O)CC4)CC3)cc2)nc2ccccc21` [1-[(4-{[4-(1-methyl-1H-1,3-benzodiazol-2-yl)phenyl]carbonyl}piperazin-1-yl)carbonyl]cyclopropan-1-ol] had an IC50 of 500 to 5000 nM.

The same test, now with this note: FASN enzymatic assay; Table 2-3.
Consider `Cc1nc(-c2ccc3scnc3c2)sc1C(=O)N1CCN(C(=O)C2(O)CC2)CC1` [1-[(4-{[2-(1,3-benzothiazol-5-yl)-4-methyl-1,3-thiazol-5-yl]carbonyl}piperazin-1-yl)carbonyl]cyclopropan-1-ol], for which the IC50 is ≥ 5000 nM.
For `O=C(c1ccc(-c2cnc3cccnc3c2)cc1)N1CCN(C(=O)C2(O)CC2)CC1` [1-[(4-{[4-(1,5-naphthyridin-3-yl)phenyl]carbonyl}piperazin-1-yl)carbonyl]cyclopropan-1-ol], the IC50 was ≥ 5000 nM.
Regarding `Cn1ncc2cccc(-c3ccc(C(=O)N4CCN(C(=O)C5(O)CC5)CC4)cc3)c21` [1-[(4-{[4-(1-methyl-1H-indazol-7-yl)phenyl]carbonyl}piperazin-1-yl)carbonyl]cyclopropan-1-ol], the concentration for half-maximal inhibition (IC50) is ≥ 5000 nM.

The values above are taken from patent US10457655B2, “Compounds and compositions for inhibition of FASN” (FORMA Therapeutics, Inc., priority 2013, dated 2019).
